This passage reports GI50 and TGI results from PubChem BioAssay (NCI).

Test systems include A549 NSCLC; HL-60(TB) leukemia; IGROV1 ovarian; MALME-3M melanoma; MDA-MB-231 breast; NCI/ADR-RES ovarian; OVCAR-3 ovarian; SK-MEL-5 melanoma; UACC-257 melanoma; HOP-92 NSCLC.
What all share (test): NCI tumour cell line growth inhibition, 48 h

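The compound was tested at five concentrations on cells cultured in 96-well plates, with a 48-hour exposure period. GI50 marks 50% less growth. TGI denotes the concentration required for complete inhibition of growth.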

On to `O=c1cc(-c2ccccc2)[nH]c2c1CCCC2`, for which the GI50 was 4.55 µM in the experiment with A549 NSCLC; 1.62 µM with HL-60(TB) leukemia; 3.59 µM in the experiment with IGROV1 ovarian; 3.48 µM in the experiment with MALME-3M melanoma; 6.67 µM with MDA-MB-231 breast; 1.69 µM in the experiment on NCI/ADR-RES ovarian. Moreover, the figures for the GI50 in the experiment with OVCAR-3 ovarian, with SK-MEL-5 melanoma and in the experiment with UACC-257 melanoma were 1.81 µM, 0.883 µM and 67 µM, respectively. Moreover, the TGI is greater than 100 µM in the experiment on A549 NSCLC; greater than 100 µM with HL-60(TB) leukemia; greater than 100 µM with IGROV1 ovarian; greater than 100 µM in the experiment on MALME-3M melanoma; greater than 100 µM with MDA-MB-231 breast; 5.73 µM with NCI/ADR-RES ovarian. Besides, the TGI in the experiment on OVCAR-3 ovarian was 5.02 µM; in the experiment on SK-MEL-5 melanoma, 45.4 µM; in the experiment on UACC-257 melanoma, greater than 100 µM.
Take `CCc1ccc2oc(=O)ccc2c1`: the TGI with A549 NSCLC, with HL-60(TB) leukemia, with HOP-92 NSCLC, with IGROV1 ovarian, in the experiment with MALME-3M melanoma and in the experiment with NCI/ADR-RES ovarian was greater than 100 µM in each case. Besides, the TGI in the experiment on OVCAR-3 ovarian, in the experiment with SK-MEL-5 melanoma and in the experiment with UACC-257 melanoma was greater than 100 µM throughout.
For `CCC(C)(O)c1cn(-c2ccc(Cl)cc2)nn1` (configuration not stated), the TGI with A549 NSCLC, with HL-60(TB) leukemia, in the experiment on HOP-92 NSCLC, in the experiment with IGROV1 ovarian, with MALME-3M melanoma and in the experiment with OVCAR-3 ovarian was greater than 100 µM each time. Further, the TGI in the experiment on SK-MEL-5 melanoma and in the experiment on UACC-257 melanoma was greater than 100 µM in each case.
With `COc1cc(Cc2c(C)cc(OC)c3[nH]c4ccccc4c23)cc2c1[nH]c1ccccc12`, the GI50 in the experiment with A549 NSCLC was 5.73 µM; in the experiment on HL-60(TB) leukemia, 7.95 µM; in the experiment on HOP-92 NSCLC it was 7.63 µM; with IGROV1 ovarian it was 9.03 µM; in the experiment with MALME-3M melanoma, 4.44 µM; with SK-MEL-5 melanoma, 3.94 µM. For the same molecule, the TGI in the experiment with A549 NSCLC was 16.7 µM; in the experiment with HL-60(TB) leukemia, greater than 25 µM; in the experiment on HOP-92 NSCLC, greater than 25 µM; in the experiment on IGROV1 ovarian, greater than 25 µM; in the experiment on MALME-3M melanoma, 12.4 µM; in the experiment on OVCAR-3 ovarian, 12.3 µM. In the experiment on SK-MEL-5 melanoma, this molecule showed a TGI of 7.93 µM.
For `O=C1CS/C(=N/S(=O)(=O)c2ccc(N3N=C4c5ccccc5CC4C3c3cccs3)cc2)N1C(=O)c1ccccc1` (configuration not stated), the GI50 was 70.8 µM in the experiment with A549 NSCLC; 37.3 µM with HOP-92 NSCLC; 28.3 µM in the experiment with IGROV1 ovarian; 44.6 µM with MDA-MB-231 breast; greater than 100 µM with NCI/ADR-RES ovarian; 59.2 µM with OVCAR-3 ovarian. The GI50 in the experiment with SK-MEL-5 melanoma was 22.7 µM; with UACC-257 melanoma, greater than 100 µM. For the same molecule, the TGI in the experiment with A549 NSCLC, with HOP-92 NSCLC, in the experiment with IGROV1 ovarian, with MDA-MB-231 breast, with NCI/ADR-RES ovarian and in the experiment with OVCAR-3 ovarian was greater than 100 µM in each case. Also, the results for the TGI in the experiment with SK-MEL-5 melanoma and with UACC-257 melanoma were 69.6 µM and greater than 100 µM, respectively.
Consider `Cc1cc(Cl)cc2c1NC(=O)C2(O)CC(=O)c1ccc(Br)cc1` (configuration not stated), for which the TGI in the experiment with A549 NSCLC is greater than 100 µM; in the experiment with HL-60(TB) leukemia, 48.2 µM; with HOP-92 NSCLC, greater than 100 µM; in the experiment on IGROV1 ovarian, greater than 100 µM; in the experiment on MALME-3M melanoma, greater than 100 µM; in the experiment with OVCAR-3 ovarian, greater than 100 µM. The results for the TGI in the experiment with SK-MEL-5 melanoma and with UACC-257 melanoma were 57.8 µM and greater than 100 µM, respectively.
As to `Cc1nc(NS(=O)(=O)c2ccc(NCN3C(=O)c4ccccc4C3=O)cc2)oc1C`, the GI50 in the experiment with A549 NSCLC, in the experiment with HL-60(TB) leukemia, with IGROV1 ovarian, with MALME-3M melanoma, in the experiment with MDA-MB-231 breast and in the experiment on NCI/ADR-RES ovarian was greater than 100 µM in each case. The GI50 in the experiment with OVCAR-3 ovarian, with SK-MEL-5 melanoma and in the experiment on UACC-257 melanoma was greater than 100 µM each time. Moreover, the TGI in the experiment on A549 NSCLC, with HL-60(TB) leukemia, in the experiment with IGROV1 ovarian, in the experiment on MALME-3M melanoma, with MDA-MB-231 breast and in the experiment on NCI/ADR-RES ovarian was greater than 100 µM in each case. The TGI in the experiment with OVCAR-3 ovarian, with SK-MEL-5 melanoma and in the experiment on UACC-257 melanoma was greater than 100 µM each time.
Turning to `CC(C)[P+](c1ccccc1)(c1ccccc1)c1ccccc1`, the GI50 in the experiment with A549 NSCLC was 5.07 µM; with HL-60(TB) leukemia, 2.24 µM; with IGROV1 ovarian, 14.3 µM; in the experiment with MDA-MB-231 breast, 10.6 µM; in the experiment on NCI/ADR-RES ovarian it was greater than 100 µM; in the experiment with OVCAR-3 ovarian, 4.49 µM. Further, the GI50 was 2.22 µM in the experiment on SK-MEL-5 melanoma and 1.07 µM in the experiment on UACC-257 melanoma. The TGI in the experiment with A549 NSCLC was greater than 100 µM; in the experiment on HL-60(TB) leukemia, 7.5 µM; in the experiment with IGROV1 ovarian, greater than 100 µM; with MDA-MB-231 breast it was greater than 100 µM; in the experiment with NCI/ADR-RES ovarian, greater than 100 µM; in the experiment with OVCAR-3 ovarian, greater than 100 µM. Further, the TGI in the experiment with SK-MEL-5 melanoma turned out to be 7.9 µM; with UACC-257 melanoma, 7.06 µM.
On to `CC(C)=Cc1cc(C)c2ccc(C)c3c2c1C(C)=C(O)C3=O`, for which the GI50 in the experiment on A549 NSCLC is 32 µM; in the experiment with HL-60(TB) leukemia, 2.99 µM; in the experiment with IGROV1 ovarian, 21 µM; with MALME-3M melanoma, 34.9 µM; with MDA-MB-231 breast, 20.4 µM; in the experiment with NCI/ADR-RES ovarian it was 15.7 µM. In addition, the GI50 in the experiment with OVCAR-3 ovarian was 15.6 µM; in the experiment on SK-MEL-5 melanoma, 15.3 µM; in the experiment with UACC-257 melanoma, 39.5 µM. Besides, the TGI is greater than 100 µM with A549 NSCLC; 9.9 µM in the experiment with HL-60(TB) leukemia; 71.6 µM in the experiment on IGROV1 ovarian; greater than 100 µM in the experiment with MALME-3M melanoma; 43.3 µM in the experiment on MDA-MB-231 breast; 51.3 µM in the experiment with NCI/ADR-RES ovarian. Also, the TGI was 49.2 µM in the experiment on OVCAR-3 ovarian, 28.9 µM in the experiment with SK-MEL-5 melanoma and greater than 100 µM in the experiment with UACC-257 melanoma.
Take `CCOC(=O)[C@@]12C(C)=CC(=O)O[C@]1(C)C1C(=O)NC(=O)C12` (some centres not stated): the TGI with A549 NSCLC, in the experiment on HL-60(TB) leukemia, in the experiment on HOP-92 NSCLC, with IGROV1 ovarian, in the experiment with MALME-3M melanoma and with OVCAR-3 ovarian was greater than 100 µM throughout. Moreover, the TGI in the experiment on SK-MEL-5 melanoma and in the experiment with UACC-257 melanoma was greater than 100 µM throughout.
